From patent US11498899B2, “Nitrone herbicides” (FMC Corporation, priority 2016, dated 2022)

What was measured:
[1] = test system: foxtail, giant (giant foxtail, Setaria faberii); experiment: Test A preemergence, visual injury rating 0-100; type: in vivo; conditions: for Foxtail, Giant plant response rating (0 to 100 scale): 125 g ai/ha; for Foxtail, Giant plant response rating: 500 g ai/ha, 0 to 100 scale
Description: (§1) Seeds of plant species selected from barnyardgrass (Echinochloa crus-galli), kochia (Kochia scoparia), ragweed (common ragweed, Ambrosia elatior), ryegrass, Italian (Italian ryegrass, Lolium multiflorum), foxtail, giant (giant foxtail, Setaria faberii), foxtail, green (green foxtail, Setaria viridis), and pigweed (Amaranthus retroflexus) were planted into a blend of loam soil and sand and treated preemergence with a directed soil spray using test chemicals formulated in a non-phytotoxic solvent mixture which included a surfactant.
(§2) At the same time, plants selected from these weed species and also wheat (Triticum aestivum), corn (Zea mays), blackgrass (Alopecurus myosuroides), and galium (catchweed bedstraw, Galium aparine) were planted in pots containing the same blend of loam soil and sand and treated with postemergence applications of test chemicals formulated in the same manner. Plants ranged in height from 2 to 10 cm and were in the one- to two-leaf stage for the postemergence treatment. Treated plants and untreated controls were maintained in a greenhouse for approximately 10 days, after which time all treated plants were compared to untreated controls and visually evaluated for injury. […] A dash (-) response means no test result.

[2] = test system: ryegrass, Italian (Italian ryegrass, Lolium multiflorum); experiment: Test A preemergence, visual injury rating 0-100; type: in vivo; conditions: for Ryegrass, Italian plant response rating (0 to 100 scale): 125 g ai/ha; for Ryegrass, Italian plant response rating: 500 g ai/ha, 0 to 100 scale
Description: as §1, §2

kochia (Kochia scoparia) [3] = experiment: Test A preemergence, visual injury rating 0-100; type: in vivo; conditions: for Kochia plant response rating (0 to 100 scale): 125 g ai/ha; for Kochia plant response rating: 500 g ai/ha, 0 to 100 scale
Description: as §1, §2

[4] = test system: pigweed (Amaranthus retroflexus); experiment: Test A preemergence, visual injury rating 0-100; type: in vivo; conditions: for Pigweed plant response rating (0 to 100 scale): 125 g ai/ha; for Pigweed plant response rating: 500 g ai/ha, 0 to 100 scale
Description: as §1, §2

[5] = test system: ragweed (common ragweed, Ambrosia elatior); experiment: Test A preemergence, visual injury rating 0-100; type: in vivo; conditions: for Ragweed plant response rating (0 to 100 scale): 125 g ai/ha; for Ragweed plant response rating: 500 g ai/ha, 0 to 100 scale
Description: as §1, §2

[6] = test system: foxtail, giant (giant foxtail, Setaria faberii); experiment: Test A postemergence, visual injury rating 0-100; type: in vivo; conditions: 0 to 100 scale
Description: as §1, §2

[7] = test system: ryegrass, Italian (Italian ryegrass, Lolium multiflorum); experiment: Test A postemergence, visual injury rating 0-100; type: in vivo; conditions: 0 to 100 scale
Description: as §1, §2

kochia (Kochia scoparia) [8] = experiment: Test A postemergence, visual injury rating 0-100; type: in vivo; conditions: 0 to 100 scale
Description: as §1, §2

corn (Zea mays) = experiment: Test A postemergence, visual injury rating 0-100; type: in vivo; conditions: 0 to 100 scale
Description: as §1, §2

[9] = test system: blackgrass (Alopecurus myosuroides); experiment: Test A postemergence, visual injury rating 0-100; type: in vivo; conditions: 0 to 100 scale
Description: as §1, §2

[10] = test system: galium (catchweed bedstraw, Galium aparine); experiment: Test A postemergence, visual injury rating 0-100; type: in vivo; conditions: 0 to 100 scale
Description: as §1, §2

[11] = test system: wheat (Triticum aestivum); experiment: Test A postemergence, visual injury rating 0-100; type: in vivo; conditions: 0 to 100 scale
Description: as §1, §2

[12] = test system: barnyardgrass (Echinochloa crus-galli); experiment: Test A postemergence, visual injury rating 0-100; type: in vivo; conditions: 0 to 100 scale
Description: as §1, §2

[13] = test system: pigweed (Amaranthus retroflexus); experiment: Test A postemergence, visual injury rating 0-100; type: in vivo; conditions: 0 to 100 scale
Description: as §1, §2

[14] = test system: ragweed (common ragweed, Ambrosia elatior); experiment: Test A postemergence, visual injury rating 0-100; type: in vivo; conditions: 0 to 100 scale
Description: as §1, §2

[15] = test system: barnyardgrass (Echinochloa crus-galli); experiment: Test B flooded paddy test, visual rating 0-100; conditions: Flood, 250 g ai/ha, applied to paddy water, rated after 13 to 15 days
rice (Oryza sativa) = experiment: Test B flooded paddy test, visual rating 0-100 (0 no effect, 100 complete control); conditions: Flood, 250 g ai/ha, applied to paddy water, rated after 13 to 15 days
[16] = test system: ducksalad (Heteranthera limosa); experiment: Test B flooded paddy test, visual rating 0-100; conditions: Flood, 250 g ai/ha, applied to paddy water, rated after 13 to 15 days
[17] = test system: barnyardgrass (Echinochloa crus-galli); experiment: Test A preemergence, visual injury rating 0-100 (0 no effect, 100 complete control); type: in vivo; conditions: for Barnyardgrass plant response rating (0 to 100 scale): 125 g ai/ha; for Barnyardgrass plant response rating: 500 g ai/ha, 0 to 100 scale
Description: as §1, §2

| SMILES | Foxtail, Giant plant response rating (0 to 100 scale) [1] | Foxtail, Giant plant response rating [1] | Ryegrass, Italian plant response rating (0 to 100 scale) [2] | Ryegrass, Italian plant response rating [2] | Kochia plant response rating (0 to 100 scale) (kochia (Kochia scoparia) [3]) | Kochia plant response rating (kochia (Kochia scoparia) [3]) | Pigweed plant response rating (0 to 100 scale) [4] | Pigweed plant response rating [4] | Ragweed plant response rating (0 to 100 scale) [5] | Ragweed plant response rating [5] | Foxtail, Giant plant response rating ([6]; 125 g ai/ha) | Foxtail, Giant plant response rating ([6]; 500 g ai/ha) | Ryegrass, Italian plant response rating ([7]; 125 g ai/ha) | Ryegrass, Italian plant response rating ([7]; 500 g ai/ha) | Kochia plant response rating (kochia (Kochia scoparia) [8]; 125 g ai/ha) | Kochia plant response rating (kochia (Kochia scoparia) [8]; 500 g ai/ha) | Corn plant response rating (corn (Zea mays); 125 g ai/ha) | Corn plant response rating (corn (Zea mays); 500 g ai/ha) | Blackgrass plant response rating ([9]; 125 g ai/ha) | Blackgrass plant response rating ([9]; 500 g ai/ha) | other results |
| --- | --- | --- | --- | --- | --- | --- | --- | --- | --- | --- | --- | --- | --- | --- | --- | --- | --- | --- | --- | --- | --- |
| CC1=[N+]([O-])C(C)(C(=O)Nc2cccc(F)c2F)C(c2ccc(C(F)(F)F)cc2)C1 (racemic) [Compound 1] | 100 | 100 | 0 | 60 | 70 | 90 | 20 | 80 | 0 | 30 | 0 | 80 | 0 | 20 | 0 | 70 | 0 | 70 | 20 | 70 | Galium plant response rating ([10]; 125 g ai/ha): 80; Galium plant response rating ([10]; 500 g ai/ha): 80; Wheat plant response rating ([11]; 125 g ai/ha): 30; Wheat plant response rating ([11]; 500 g ai/ha): 70; Barnyardgrass plant response rating ([12]; 125 g ai/ha): 70; Barnyardgrass plant response rating ([12]; 500 g ai/ha): 90; Pigweed plant response rating ([13]; 125 g ai/ha): 20; Pigweed plant response rating ([13]; 500 g ai/ha): 60; Ragweed plant response rating ([14]; 125 g ai/ha): 0; Ragweed plant response rating ([14]; 500 g ai/ha): 30; Barnyardgrass plant response rating (0 to 100 scale) [15]: 70; Rice plant response rating (0 to 100 scale) (rice (Oryza sativa)): 50; Ducksalad plant response rating (0 to 100 scale) [16]: 70; Barnyardgrass plant response rating (0 to 100 scale) [17]: 90; Barnyardgrass plant response rating [17]: 100 |
| CC1=[N+]([O-])C(C(=O)Nc2cccc(F)c2F)C(c2cccc(Cl)c2)C1 (racemic) [Compound 3] | 100 | 100 | 20 | 50 | 30 | 90 | 20 | 70 | 30 | 70 | 80 | 90 | 0 | 70 | 20 | 60 | 40 | 90 | 30 | 80 | Galium plant response rating ([10]; 125 g ai/ha): 60; Galium plant response rating ([10]; 500 g ai/ha): 70; Wheat plant response rating ([11]; 125 g ai/ha): 30; Wheat plant response rating ([11]; 500 g ai/ha): 80; Barnyardgrass plant response rating ([12]; 125 g ai/ha): 80; Barnyardgrass plant response rating ([12]; 500 g ai/ha): 90; Pigweed plant response rating ([13]; 125 g ai/ha): 0; Pigweed plant response rating ([13]; 500 g ai/ha): 20; Ragweed plant response rating ([14]; 500 g ai/ha): 50; Barnyardgrass plant response rating (0 to 100 scale) [15]: 80; Rice plant response rating (0 to 100 scale) (rice (Oryza sativa)): 0; Ducksalad plant response rating (0 to 100 scale) [16]: 100; Barnyardgrass plant response rating (0 to 100 scale) [17]: 100; Barnyardgrass plant response rating [17]: 100 |
